Test results: patent publication US8101663B2, “Polymorphs of suberoylanilide hydroxamic acid” (Merck HDAC Research, LLC, priority 2002, dated 2012)
Several values for one entry are separate records, joined by “and”; a condition that tells them apart may be missing. Identical values can stand only once.

What was measured:
[1] = test system: murine erythroleukemia cells (MELC); settings: without continuing drug exposure; cited from earlier work
[2] = test system: solid tumors, Hodgkin's or non-Hodgkin's lymphomas, leukemia; test: Anti-tumor response in patients on oral SAHA; type: in vivo
Excerpt: (§1) In another experiment, twenty-five patients with solid tumors have been enrolled onto arm A, thirteen patients with Hodgkin's or non-Hodgkin's lymphomas have been enrolled onto arm B, and one patient with acute leukemia and one patient with myelodysplastic syndrome have been enrolled onto arm C, as shown in Table 4.
Thirteen patients continued treatment for 3-12 months with responding or stable disease: thyroid (n=3), sweat gland (n=1), renal (n=2), larynx (n=1), prostate (n=1), Hodgkin's lymphoma (n=2), non-Hodgkin's lymphoma (n=2), and leukemia (n=1).
Six patients had tumor shrinkage on CT scans. Three of these six patients meet the criteria of partial response (one patient with metastatic laryngeal cancer and two patients with non-Hodgkin's lymphomas). These partial responses occurred at the dose levels of 400 mg BID (n=2) and 600 mg QD (n=1).

[3] = type: in vivo, patients; settings: once a day, continuous
Excerpt: as §1
Among eleven patients treated in Cohort II, one patient experienced the DLT of grade 3 diarrhea and grade 3 dehydration during the first treatment cycle. Nine patients were entered into Cohort III. Two patients were inevaluable for the 28-day toxicity assessment because of early study termination due to rapid progression of disease. Of the seven remaining patients, five experienced DLT during the first treatment cycle: diarrhea/dehydration (n=1), fatigue/dehydration (n=1), anorexia (n=1), dehydration (n=1) and anorexia/dehydration (n=1). These five patients recovered in approximately one week after the study drug was held. They were subsequently dose reduced to 400 mg QD which appeared to be well tolerated. The median days on 400 mg BID for all patients in Cohort III was 21 days. […] Following protocol amendment, accrual was continued in cohort IV at a dose of 600 mg once a day. Of the seven patients enrolled onto cohort IV, two were inevaluable for the 28-day toxicity assessment because of early study termination due to rapid progression of disease. […]

[4] = test system: acetylated histones in peripheral mononuclear cells; test: Histone acetylation in peripheral blood mononuclear cells after SAHA capsules (anti-acetylated histone H3 antibody); type: in vivo, patients; settings: 400 mg per day dose level, preliminary analysis
Experimental: Peripheral blood mononuclear cells were collected pre-therapy, immediately post-infusion and between 2-10 hours after oral ingestion of the SAHA capsules to assess the effect of SAHA on the extent of histone acetylation in a normal host cell. Histones were isolated and probed with anti-acetylated histone (H3) antibody followed by HRP-secondary antibody.

[5] = test system: carcinogen-induced (N-methylnitrosourea) mammary tumors; settings: rats, SAHA in the diet over 130 days; cited from earlier work
[6] = Serum plasma levels of SAHA after IV and oral dosing (HPLC assay, LCMS using a deuterated standard); type: in vivo, humans; settings: human
Experimental: Objectives: To define a safe daily oral regimen of SAHA that can be used in Phase II studies. In addition, the pharmacokinetic profile of the oral formulation of SAHA was be evaluated. The oral bioavailability of SAHA in humans in the fasting vs. non-fasting state and anti-tumor effects of treatment were also monitored. Additionally, the biological effects of SAHA on normal tissues and tumor cells were assessed and responses with respect to levels of histone acetylation were documented.
Patients: Patients with histologically documented advanced stage, primary or metastatic adult solid tumors that are refractory to standard therapy or for which no curative standard therapy exists. Patients must have a Karnofsky Performance Status of ≧70%, and adequate hematologic, hepatic and renal function. Patients must be at least four weeks from any prior chemotherapy, radiation therapy or other investigational anticancer drugs.
Dosing Schedule: On the first day, patients were first treated with 200 mg of intravenously-administered SAHA. Starting on the second day, patients were treated with daily doses of oral SAHA according to Table 1. Each cohort received a different dose of SAHA. “QD” indicates dosing once a day; “Q12 hours” indicates dosing twice a day. For example, patients in Cohort IV received […] of SAHA per day. Doses were administered to patients daily and continuously. Blood samples were taken on day one and on day 21 of oral treatment. Patients were taken off oral SAHA treatment due to disease progression, tumor regression, unacceptable side effects, or treatment with other therapies.
Cmax is the maximum concentration of SAHA observed after administration. IV SAHA was administered at 200 mg infused over two hours. The oral SAHA was administered in a single capsule at 200 mg. Tables 2 and 3 summarize the results of an HPLC assay (LCMS using a deuterated standard) that quantitates the amount of SAHA in the blood plasma of the patients versus time, using acetylated histone-4 (α-AcH4) as a marker.

[7] = Interim pharmacokinetic analysis of oral SAHA, dose escalation study; type: in vivo, patients
Experimental: as §1
The interim pharmacokinetic analysis was based on 18 patients treated on the dose levels of 200 mg QD, 400 mg QD, and 400 mg BID. […] Overall, the fraction of AUCinf due to extrapolation was 1% or less.

[8] = iv, 200 mg, Patient #1, IV, 200 mg infused over two hours
[9] = iv, 200 mg, Patient #2, IV, 200 mg infused over two hours
[10] = po, 200 mg, Patient #1, oral (fasting), single capsule 200 mg
[11] = po, 200 mg, Patient #1, oral (nonfasting), single capsule 200 mg
[12] = po, 200 mg, Patient #2, oral (fasting), single capsule 200 mg
[13] = po, 200 mg, Patient #2, oral (nonfasting), single capsule 200 mg

For `CC(=O)NCCCCCCNC(C)=O` [HMBA, N,N′-hexamethylene bisacetamide], the “Minimum duration of continuous exposure required to induce differentiation in a substantial portion (>20%) of the population” value [1] is listed as “about 36 hours”.

For `O=C(CCCCCCC(=O)Nc1ccccc1)NO` [SAHA, suberoylanilide hydroxamic acid], the “Patients meeting the criteria of partial response” value ([2]; dose levels 400 mg BID (n=2) and 600 mg QD (n=1), laryngeal cancer, non-Hodgkin's lymphomas) was “Three”, the “Patients with tumor shrinkage on CT scans” value ([2]; oral SAHA) was “Six” and the “Patients who continued treatment for 3-12 months with responding or stable disease” value ([2]; oral SAHA, 40 patients enrolled) was “Thirteen”. For the same compound, the “Maximally tolerated dose for once daily oral administration” value [3] was 400 mg, the “Time after ingestion up to which increased accumulation of acetylated histones could be detected” value [4] was “up to 10 hours” and the “Effect on development and continued growth of mammary tumors” value [5] was “effective at inhibiting the development and continued growth”. The half-life ([6]; Patient #2, oral (fasting), single capsule 200 mg) was 1.37 h, the AUC [6, 8] was 2550 ng·h/mL and the Cmax [6, 8] was 1330 ng/mL. It also gave a half-life [6, 8] of 0.333 h, an AUC [6, 9] of 1800 ng·h/mL and a Cmax [6, 9] of 1000 ng/mL. The half-life [6, 9] was 0.35 h, the AUC [6, 10] was 417 ng·h/mL and the Cmax [6, 10] was 225 ng/mL. For the same compound, the half-life [6, 10] was 1.33 h, the AUC [6, 11] was 983 ng·h/mL and the Cmax [6, 11] was 328 ng/mL. It also gave a half-life [6, 11] of 1.07 h, an AUC [6, 12] of 1050 ng·h/mL and a Cmax [6, 12] of 362 ng/mL. For the same compound, the AUC [6, 13] was 998 ng·h/mL, the Cmax [6, 13] was 302 ng/mL and the half-life [6, 13] was 1.55 h. For the same compound, the bioavailability ([7]; human, plasma, calculated from the AUCinf values after the IV infusion and oral routes, read-out: Bioavailable fraction of SAHA) was ~48%, the half-life ([7]; human, plasma, oral, across dose groups 200 mg QD, 400 mg QD, 400 mg BID, fasting or with food, 18 patients, read-out: Mean estimates for apparent half-life) was 1.02 to 1.9 h and the Cmax ([7]; human, plasma, oral, dose levels 200 mg QD, 400 mg QD, 400 mg BID, 18 patients, read-out: Mean estimates of Cmax) was 233 ng/mL to 570 ng/mL and 880 nM to 2.3 µM. The “Dose dependence of mean estimates of Cmax and AUCinf” value ([7]; oral, fasting or with food, 200 mg to 400 mg dose range) was “increased proportionally with dose”.
